From patent publication US7884133B2, “Pharmaceutical compositions containing (+) cannabidioil and derivatives thereof and some such novel derivatives” (priority 2003, dated 2011)
Entries after “also recorded” stand apart in the source; their conditions may differ.

Tests used:
[1] = tested on: arachidonic acid-induced ear inflammation in the mouse; assay: Arachidonic acid induced inflammation of the external ear; format: in vivo; conditions: for potency compared to indomethacin in ear inflammation, in words: (+)-CBD-DMH 40 or 10 mg/kg vs indomethacin 20 mg/kg
Protocol: Ear inflammation was measured by assessing ear tissue swelling after topical application of arachidonic acid, as described previously [Hanus (1999) id. ibid.]. Briefly, at various times after i.p. drug injections, arachidonic acid was applied to the inner surface of one ear (4.5 mg dissolved in […] ethanol). The opposite ear served as control (5 ethanol). Ear thickness was determined (in 0.01-mm units) by using a dial thickness gauge (Mitutoyo, Japan) every 15 minutes for 90 minutes, starting immediately after arachidonic acid application.

female Sabra mice [2] = assay: Hypothermia (rectal temperature); format: in vivo; conditions: 20 mg/kg i.p., * = P<0.05 vs vehicle
Protocol: (§1) Mice were injected with antagonist 90 minutes before testing and/or with agonist 60 minutes before testing in a series of four assays which reflect central cannabinoid activity [Martin (1991) id. ibid.; modified by Fride, E. and R. Mechoulam (1993) id. ibid.]. This “tetrad” consists of, consecutively, ambulation and rearing in an open field (8 minutes), immobility on an elevated ring of 5 cm diameter (4 minutes), rectal temperature (Yellow
(§2) Defecation was measured as the number of fecal pellets voided in the open field. In some experiments (as indicated below), fecal pellets and body temperature were assessed for a prolonged period (3 hr).

[3] = tested on: CB1−/− receptor knockout mice; assay: Central effects in CB1−/− receptor knockout mice; format: in vivo; conditions: not shown
Protocol: (§3) Female Sabra mice (2-3 months of age) were purchased from Harlan, Israel. Breeding pairs of CB1−/− receptor knockout mice were provided by Prof. A. Zimmer, University Clinic Bonn, Germany.
as §1

CB1 receptor = CB1 receptor (Rattus norvegicus, UniProt P20272); conditions: cited from earlier work
CB1 receptor, sequence (P20272 whole entry): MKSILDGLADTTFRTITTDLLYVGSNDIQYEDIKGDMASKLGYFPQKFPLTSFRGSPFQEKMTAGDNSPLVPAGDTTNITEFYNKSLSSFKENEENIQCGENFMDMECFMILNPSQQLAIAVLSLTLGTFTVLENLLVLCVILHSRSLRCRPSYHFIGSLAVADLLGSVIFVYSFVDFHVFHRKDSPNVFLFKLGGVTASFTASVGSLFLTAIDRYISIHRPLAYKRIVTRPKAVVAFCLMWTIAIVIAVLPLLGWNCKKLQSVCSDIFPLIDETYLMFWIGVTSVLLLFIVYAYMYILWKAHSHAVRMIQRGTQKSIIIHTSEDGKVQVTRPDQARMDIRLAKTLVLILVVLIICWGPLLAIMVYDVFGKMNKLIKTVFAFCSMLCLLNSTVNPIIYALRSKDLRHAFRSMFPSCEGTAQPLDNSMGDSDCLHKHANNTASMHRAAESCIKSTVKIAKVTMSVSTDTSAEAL

female Sabra mice [4] = assay: Hot plate analgesia (centrally mediated pain); format: in vivo
Protocol: (§4) Pain perception on a hot plate, is considered to be mediated by a central mechanism whereas the second, late phase of the response to an implantar injection of formalin reflects inflammatory pain mechanisms [Tjolsen, A. and Hole (1997) id. ibid.].
(§5) Thus, central pain perception was assessed by the analgesic response on a hot plate (55° C., Columbus Instruments, OH, USA). Peripheral pain was measured by the response to implantar injection of formalin (4%) 45 minutes after injection of the drug.

[5] = tested on: formalin-induced peripheral pain in mice; assay: Formalin-induced peripheral pain (second phase); format: in vivo; conditions: formalin 4% in hind footpad, 45 minutes after drug; paw licks over 60 minutes
Protocol: Formalin (4%) was injected in the left hind footpad and the number of licks of the injected foot were recorded for each 5 minutes interval for the 60 minutes starting immediately after formalin application.
as §4, §5

female Sabra mice [6] = assay: Tetrad: catalepsy (immobility) on an elevated ring; format: in vivo; conditions: 20 mg/kg i.p., elevated ring 4 min; normalized; * = P<0.05 vs vehicle
Protocol: as §1

[7] = tested on: CB1−/− receptor knockout mice; assay: Intestinal motility in CB1−/− receptor knockout mice; format: in vivo; conditions: 20 mg/kg i.p., defecation rate recorded for 3 hours
Protocol: Female CB1−/− knockout mice were injected i.p. with (+)-7-OH-CBD-DMH, (+)-CBD-DMH or Δ^9-THC (20 mg/kg). Intestinal motility (defecation rate) was recorded for a period of 3 hours.
as §3, §2

female Sabra mice [8] = assay: Tetrad: ambulation (horizontal movements) in an open field; format: in vivo; conditions: 20 mg/kg i.p., open field 8 min, 30 or 60 min after injection; normalized; * = P<0.05 vs vehicle
Protocol: as §1

female Sabra mice [9] = assay: Tetrad overall (central cannabinoid activity); format: in vivo; conditions: 20 mg/kg i.p., tested 60 minutes later
Protocol: Central activity of the compounds of the invention was assessed in the “tetrad”, which is a series of assays commonly used to measure central cannabimimmetic effects [Martin, B. R. et al. (1991) Pharmacol. Biochem. Behav. 40(3): 471-8; Fride, E. and C. Sanudo-Pena (2002) id. ibid.]. Three parameters for peripheral activity were used. Since gastrointestinal transit is regulated locally in the periphery rather than by centrally located CB1 receptors [Izzo (2000) id. ibid.; Landi (2002) id. ibid.], intestinal motility was one of the parameters used, and peripheral cannabinoid effects was measured as rates of defecation (see Example 29).
as §1

female Sabra mice [10] = assay: Intestinal motility (defecation, number of fecal pellets); format: in vivo; conditions: 20 mg/kg i.p.
Protocol: as §2

CB2 receptor = CB2 receptor (Homo sapiens, UniProt P34972); conditions: cited from earlier work
CB2 receptor, sequence (P34972 whole entry): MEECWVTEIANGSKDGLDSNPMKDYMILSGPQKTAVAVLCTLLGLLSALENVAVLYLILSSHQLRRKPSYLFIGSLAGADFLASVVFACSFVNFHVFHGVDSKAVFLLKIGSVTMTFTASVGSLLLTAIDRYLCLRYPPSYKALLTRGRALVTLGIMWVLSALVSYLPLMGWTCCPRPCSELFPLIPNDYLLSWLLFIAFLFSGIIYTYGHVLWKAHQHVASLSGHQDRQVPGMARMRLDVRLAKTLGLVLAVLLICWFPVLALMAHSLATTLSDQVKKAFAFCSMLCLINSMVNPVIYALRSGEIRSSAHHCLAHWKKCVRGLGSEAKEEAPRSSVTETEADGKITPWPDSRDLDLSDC

female Sabra mice [11] = assay: Intestinal motility after antagonist pre-treatment (SR141716A, SR144528, capsazepine); format: in vivo; conditions: for reversal of inhibition of defecation by CB1 antagonist SR141716A / reversal of inhibition of defecation by CB2 antagonist SR144528: agonist 20 mg/kg; for reversal of inhibition of defecation by CB1 antagonist SR141716A: SR141716A 1 mg/kg i.p. 30 minutes before agonist; for reversal of inhibition of defecation by CB2 antagonist SR144528: SR144528 1 or 3 mg/kg i.p. 30 minutes before agonist
Protocol: (SR1, 1 mg/kg). SR1 was injected (i.p.) 30 minutes before the agonist. 60 minutes after (+)CBD-DMH the number of fecal pellets was recorded.
(SR2, 1 mg/kg). SR2 was injected (i.p.) 30 minutes before the agonist. 60 minutes after (+)-CBD-DMH the number of fecal pellets was recorded.
as §1, §2

female Sabra mice [12] = assay: Tetrad: rearing (vertical movements) in an open field; format: in vivo; conditions: 20 mg/kg i.p.
Protocol: as §1

Structure (SMILES): C=C(C)C1CCC(C)=CC1c1c(O)cc(C(C)(C)CCCCCC)cc1O (single isomer, unassigned; (+)) [+CBD−DMH, (+)-CBD-DMH]
- potency compared to indomethacin in ear inflammation, in words ([1]; listed as (+) CBD-DMH): as effective as indomethacin
- potency compared to indomethacin in ear inflammation, in words ([1]; listed as (+)-CBD-DMH): equal potency as indomethacin; also recorded: as potent as indomethacin
- potency compared to indomethacin in ear inflammation, in words ([1]; listed as (+)CBD-DMH): Equal potencies
- inhibition of arachidonic acid-induced ear inflammation, in words ([1]; i.p., 10 to 40 mg/kg, ear thickness every 15 minutes for 90 minutes): almost completely inhibited
- Hypothermia (Δ-Body Temp.) (female Sabra mice [2]): −0.3 °C
- central effects in CB1−/− receptor knockout mice [3]: None of the drugs assessed ((+)-CBD-DMH, (+)-7-OH-CBD-DMH and Δ^9-THC had any effect
- Ki (CB1 receptor; first value of CB1/CB2 cell, data from Bisogno et al., 2001, read-out: CB1 Receptor Binding (Ki)): 17 nM
- Kd (CB1 receptor; previously reported, Bisogno et al. 2001, read-out: affinity for the CB1 receptor (Kd)): 17.4 nM
- centrally mediated pain on hot plate, in words (female Sabra mice [4]; 20 mg/kg): not active; also recorded: not affected
- Analgesia (Hot Plate) (% MPE) (female Sabra mice [4]; 20 mg/kg i.p., hot plate 55° C., max 45 sec, normalized, * = P<0.05 vs vehicle): 10 % MPE
- second (inflammatory) phase of formalin-induced pain, in words [5]: completely inhibited the second phase; also recorded: almost completely inhibited; also recorded: almost completely prevented the second phase of pain
- Catalepsy (Freezing of Movement) (% MPE) (female Sabra mice [6]): 16 % MPE
- effect on intestinal motility in CB1−/− knockout mice [7]: absence of inhibition of intestinal motility; also recorded: None of the drugs assessed ((+)-CBD-DMH, (+)-7-OH-CBD-DMH and Δ^9-THC had any effect; also recorded: no effects
- Horizontal Movements (% MPE) (female Sabra mice [8]): 82 % MPE
- central effects (tetrad), in words (female Sabra mice [9]): absence of central effects or small effects; also recorded: Lack of central effects
- inhibition of defecation / intestinal motility, in words (female Sabra mice [10]; 60 minutes after injection): completely blocked
- Inhibition of Intesitinal Motility (% MPE) (female Sabra mice [10]; defecation in open field 8 min, normalized, * = P<0.05 vs vehicle): 100* % MPE
- Kd (CB2 receptor; previously reported, Bisogno et al. 2001, read-out: affinity for the CB2 receptor (Kd)): 211 nM
- Ki (CB2 receptor; second value of CB1/CB2 cell, data from Bisogno et al., 2001, read-out: CB2 Receptor Binding (Ki)): 210 nM
- reversal of inhibition of defecation by CB1 antagonist SR141716A (female Sabra mice [11]; listed as (+) CBD-DMH): almost fully reversed
- reversal of inhibition of defecation by CB1 antagonist SR141716A (female Sabra mice [11]; listed as (+)-CBD-DMH): effectively antagonized; also recorded: partial reversal
- reversal of inhibition of defecation by CB2 antagonist SR144528 (female Sabra mice [11]; listed as (+) CBD-DMH): not at all
- reversal of inhibition of defecation by CB2 antagonist SR144528 (female Sabra mice [11]; listed as (+)-CBD-DMH): not at all; also recorded: did not prevent; also recorded: no reversal
- effect of VR1 antagonist capsazepine on inhibition of defecation (female Sabra mice [11]; data not shown): did not affect
- effect on rearing in an open-field, in words (female Sabra mice [12]): modest effect
- Vertical Movements (% MPE) (female Sabra mice [12]; open field 8 min, normalized, * = P<0.05 vs vehicle): 61 % MPE
